# Results: US20050208496A1, “Methods of testing for bronchial asthma or chronic obstructive pulmonary disease” (Genox Research, Inc., priority 2002, published 2005)
# Test system: mouse counterpart genes
# Assay: Mouse GeneChip (MG-U74A to MG-U74C) analysis of lung and trachea of the OVA antigen-exposed bronchial hypersensitivity model, S-Sal group versus S-OVA group
# Format: in vivo
# [1] = S-Sal group vs S-OVA group, chip B, 1st
# [2] = S-Sal group vs S-OVA group, chip B, 2nd
# [3] = S-Sal group vs S-OVA group, chip B, 3rd
# [4] = S-Sal group vs S-OVA group, chip C, 1st
# [5] = S-Sal group vs S-OVA group, chip C, 2nd
# [6] = S-Sal group vs S-OVA group, chip C, 3rd
# [7] = S-Sal vs S-OVA group, 1st, P/A: A
# [8] = S-Sal vs S-OVA group, 1st, P/A: M
# [9] = S-Sal vs S-OVA group, 1st, P/A: P
# [10] = S-Sal vs S-OVA group, 2nd, P/A: A
# [11] = S-Sal vs S-OVA group, 2nd, P/A: P
substance,measurement,setting,value
"ovalbumin [OVA antigen, ovalbumin antigen used for sensitization and inhalation to induce bronchial hypersensitivity in mice]","Fold Change, SAM domain and HD domain, 1 (mouse Probe ID 109915_at)",[1],1.2
same,"Fold Change, Similar to dihydropyrimidine dehydrogenase, clone MGC: 37940 (mouse Probe ID 111949_at)",[1],0.588
same,"Fold Change, Similar to guanylate nucleotide binding protein 3, clone MGC: 6385 (mouse Probe ID 107939_at)",[1],1.9
same,"Fold Change, procollagen lysine, 2-oxoglutarate 5-dioxygenase 2 (mouse Probe ID 114376_at)",[1],0.833
same,"Fold Change, thioredoxin reductase 1 (mouse Probe ID 162642_at)",[1],0.323
same,"Fold Change, ESTs AI844322 (mouse Probe ID 110469_at)",[2],0.833
same,"Fold Change, RIKEN cDNA 2610017M01 gene (mouse Probe ID 105606_at)",[2],0.5
same,"Fold Change, RIKEN cDNA 2610017M01 gene (mouse Probe ID 163053_at)",[2],0.833
same,"Fold Change, SAM domain and HD domain, 1 (mouse Probe ID 109915_at)",[2],0.303
same,"Fold Change, Similar to dihydropyrimidine dehydrogenase, clone MGC: 37940 (mouse Probe ID 111949_at)",[2],0.588
same,"Fold Change, Similar to guanylate nucleotide binding protein 3, clone MGC: 6385 (mouse Probe ID 107939_at)",[2],1.2
same,"Fold Change, growth arrest and DNA-damage-inducible 45 gamma (mouse Probe ID 109336_at)",[2],1.7
same,"Fold Change, procollagen lysine, 2-oxoglutarate 5-dioxygenase 2 (mouse Probe ID 114376_at)",[2],1.1
same,"Fold Change, thioredoxin reductase 1 (mouse Probe ID 162642_at)",[2],2.8
same,"Fold Change, RIKEN cDNA 2610017M01 gene (mouse Probe ID 105606_at)",[3],0.667
same,"Fold Change, RIKEN cDNA 2610017M01 gene (mouse Probe ID 163053_at)",[3],1.2
same,"Fold Change, SAM domain and HD domain, 1 (mouse Probe ID 109915_at)",[3],1.1
same,"Fold Change, Similar to dihydropyrimidine dehydrogenase, clone MGC: 37940 (mouse Probe ID 111949_at)",[3],0.833
same,"Fold Change, Similar to guanylate nucleotide binding protein 3, clone MGC: 6385 (mouse Probe ID 107939_at)",[3],0.833
same,"Fold Change, thioredoxin reductase 1 (mouse Probe ID 162642_at)",[3],0.588
same,"Fold Change, RIKEN cDNA 6330404C01 gene (mouse Probe ID 166590_at)",[4],2
same,"Fold Change, expressed sequence AV022454 (mouse Probe ID 165678_i_at)",[4],1.3
same,"Fold Change, interferon-induced protein with tetratricopeptide repeats 1 (mouse Probe ID 168299_f_at)",[4],1.3
same,"Fold Change, small inducible cytokine subfamily B (Cys-X-Cys), member 11 (mouse Probe ID 140659_at)",[4],3.8
same,"Fold Change, RIKEN cDNA 6330404C01 gene (mouse Probe ID 166590_at)",[5],1
same,"Fold Change, expressed sequence AV022454 (mouse Probe ID 165678_i_at)",[5],1.3
same,"Fold Change, hydroxysteroid (17-beta) dehydrogenase 2 (mouse Probe ID 166141_i_at)",[5],0.526
same,"Fold Change, interferon-induced protein with tetratricopeptide repeats 1 (mouse Probe ID 168299_f_at)",[5],1.1
same,"Fold Change, sialyltransferase 1 (beta-galactoside alpha-2,6-sialyltransferase) (mouse Probe ID 167200_r_at)",[5],1.6
same,"Fold Change, small inducible cytokine subfamily B (Cys-X-Cys), member 11 (mouse Probe ID 140659_at)",[5],2
same,"Fold Change, expressed sequence AV022454 (mouse Probe ID 165678_i_at)",[6],2.2
same,"Fold Change, hydroxysteroid (17-beta) dehydrogenase 2 (mouse Probe ID 166141_i_at)",[6],1.9
same,"Fold Change, hydroxysteroid (17-beta) dehydrogenase 2 (mouse Probe ID 169670_at)",[6],0.385
same,"Fold Change, interferon-induced protein with tetratricopeptide repeats 1 (mouse Probe ID 168299_f_at)",[6],1.2
same,"Fold Change, small inducible cytokine subfamily B (Cys-X-Cys), member 11 (mouse Probe ID 140659_at)",[6],1
same,"Fold Change, DNA-damage inducible transcript 3 (mouse Probe ID 101429_at)",[7],0.37
same,"Fold Change, RAS guanyl releasing protein 1 (mouse Probe ID 98307_at)",[7],0.5
same,"Fold Change, RAS guanyl releasing protein 1 (mouse Probe ID 167498_i_at)",[7],0.833
same,"Fold Change, RIKEN cDNA A2301D9K23 gene (mouse Probe ID 163453_at)",[7],1.6
same,"Fold Change, RIKEN cDNA A2301D9K23 gene (mouse Probe ID 166475_r_at)",[7],1.2
same,"Fold Change, acid phosphatase 5, tartrate resistant (mouse Probe ID 162543_r_at)",[7],4.3
same,"Fold Change, cathepsin C (mouse Probe ID 101020_at)",[7],1.8
same,"Fold Change, cathepsin C (mouse Probe ID 161251_f_at)",[7],0.667
same,"Fold Change, cytokine inducible SH2-containing protein 1 (mouse Probe ID 92832_at)",[7],1.6
same,"Fold Change, dual specificity phosphatase 14 (mouse Probe ID 165144_r_at)",[7],0.5
same,"Fold Change, dual specificity phosphatase 14 (mouse Probe ID 171285_at)",[7],1.7
same,"Fold Change, fetuin beta (mouse Probe ID 108524_at)",[7],1.2
same,"Fold Change, keratin complex 1, acidic, gene 16 (mouse Probe ID 103589_at)",[7],1.8
same,"Fold Change, keratin complex 1, acidic, gene 16 (mouse Probe ID 164428_i_at)",[7],1.5
same,"Fold Change, nuclear factor, interleukin 3, regulated (mouse Probe ID 164758_i_at)",[7],1.4
same,"Fold Change, serine (or cysteine) proteinase inhibitor, clade B (ovalbumin), member 2 (mouse Probe ID 137166_r_at)",[7],0.667
same,"Fold Change, transmembrane 4 superfamily member 8 (mouse Probe ID 97912_at)",[7],3.6
same,"Fold Change, ubiquitin D (mouse Probe ID 169362_f_at)",[7],1.2
same,"Fold Change, neutrophil cytosolic factor 2 (mouse Probe ID 102326_at)",[8],2
same,"Fold Change, ubiquitin fusion degradation 1 like (mouse Probe ID 93303_at)",[8],0.567
same,"Fold Change, DEAD (aspartate-glutamate-alanine-aspartate) box polypeptide 5 (mouse Probe ID 93493_at)",[9],1
same,"Fold Change, DEAD (aspartate-glutamate-alanine-aspartate) box polypeptide 5 (mouse Probe ID 113899_at)",[9],0.909
same,"Fold Change, RIKEN cDNA 4933419D20 gene (mouse Probe ID 97442_at)",[9],1.2
same,"Fold Change, RIKEN cDNA 4933419D20 gene (mouse Probe ID 112237_at)",[9],1.1
same,"Fold Change, cathepsin C (mouse Probe ID 101019_at)",[9],1.2
same,"Fold Change, dual specificity phosphatase 14 (mouse Probe ID 162702_at)",[9],1.2
same,"Fold Change, expressed sequence AI463430 (mouse Probe ID 112883_at)",[9],1
same,"Fold Change, fatty acid binding protein 4, adipocyte (mouse Probe ID 100567_at)",[9],0.556
same,"Fold Change, integrin-associated protein (mouse Probe ID 103611_at)",[9],1
same,"Fold Change, ribosomal protein S16 (mouse Probe ID 97647_at)",[9],1
same,"Fold Change, ribosomal protein S16 (mouse Probe ID 169860_r_at)",[9],33
same,"Fold Change, serine (or cysteine) proteinase inhibitor, clade B (ovalbumin), member 2 (mouse Probe ID 92978_s_at)",[9],2.1
same,"Fold Change, serine (or cysteine) proteinase inhibitor, clade B (ovalbumin), member 6 (mouse Probe ID 96060_at)",[9],1.1
same,"Fold Change, signal transducer and activator of transcription 1 (mouse Probe ID 101465_at)",[9],1.8
same,"Fold Change, signal transducer and activator of transcription 1 (mouse Probe ID 114635_at)",[9],2
same,"Fold Change, ubiquitin D (mouse Probe ID 168938_r_at)",[9],1.4
same,"Fold Change, DNA-damage inducible transcript 3 (mouse Probe ID 101429_at)",[10],0.526
same,"Fold Change, RAS guanyl releasing protein 1 (mouse Probe ID 167498_i_at)",[10],1.6
same,"Fold Change, RIKEN cDNA A2301D9K23 gene (mouse Probe ID 163453_at)",[10],1.4
same,"Fold Change, RIKEN cDNA A2301D9K23 gene (mouse Probe ID 166475_r_at)",[10],0.556
same,"Fold Change, acid phosphatase 5, tartrate resistant (mouse Probe ID 162543_r_at)",[10],6.8
same,"Fold Change, cathepsin C (mouse Probe ID 101020_at)",[10],0.625
same,"Fold Change, cathepsin C (mouse Probe ID 161251_f_at)",[10],1
same,"Fold Change, cytokine inducible SH2-containing protein 1 (mouse Probe ID 92832_at)",[10],1.9
same,"Fold Change, dual specificity phosphatase 14 (mouse Probe ID 165144_r_at)",[10],0.833
same,"Fold Change, fetuin beta (mouse Probe ID 108524_at)",[10],0.278
same,"Fold Change, keratin complex 1, acidic, gene 16 (mouse Probe ID 103589_at)",[10],1.3
same,"Fold Change, keratin complex 1, acidic, gene 16 (mouse Probe ID 164428_i_at)",[10],1.6
same,"Fold Change, ribosomal protein S16 (mouse Probe ID 169860_r_at)",[10],1.4
same,"Fold Change, serine (or cysteine) proteinase inhibitor, clade B (ovalbumin), member 2 (mouse Probe ID 137166_r_at)",[10],0.667
same,"Fold Change, transmembrane 4 superfamily member 8 (mouse Probe ID 97912_at)",[10],1
same,"Fold Change, ubiquitin D (mouse Probe ID 92715_at)",[10],0.455
same,"Fold Change, ubiquitin D (mouse Probe ID 168938_r_at)",[10],0.667
same,"Fold Change, ubiquitin D (mouse Probe ID 169362_f_at)",[10],1
same,"Fold Change, ubiquitin fusion degradation 1 like (mouse Probe ID 93303_at)",[10],0.303
same,"Fold Change, RAS guanyl releasing protein 1 (mouse Probe ID 98307_at)","S-Sal vs S-OVA group, 2nd, P/A: M",1.7
same,"Fold Change, DEAD (aspartate-glutamate-alanine-aspartate) box polypeptide 5 (mouse Probe ID 93493_at)",[11],1
same,"Fold Change, DEAD (aspartate-glutamate-alanine-aspartate) box polypeptide 5 (mouse Probe ID 113899_at)",[11],0.714
same,"Fold Change, RIKEN cDNA 4933419D20 gene (mouse Probe ID 97442_at)",[11],1
same,"Fold Change, RIKEN cDNA 4933419D20 gene (mouse Probe ID 112237_at)",[11],1
same,"Fold Change, acid phosphatase 5, tartrate resistant (mouse Probe ID 98859_at)",[11],1.4
